Measurements taken from ChEMBL document CHEMBL1159235, “The novel desmethyldestruxin B2, from Metarhizium anisopliae, that suppresses hepatitis B virus surface antigen production in human hepatoma cells” (J Nat Prod, 1995).
Values after ≈ are worked out from the molar mass of the structure shown. Where a SMILES comes first, the peptide text is derived from it. [ ]: non-standard residue; d: D form. dLac(3-vinyl) = C=CC[C@@H](O)C(=O)O; dHica = CC(C)C[C@@H](O)C(=O)O; NMeV = CN[C@H](C(=O)O)C(C)C; NMeA = CN[C@@H](C)C(=O)O; βAla = NCCC(=O)O

test system: Hepatitis B virus; experiment: Antiviral activity against Hepatitis B virus infected in human Hep3B cells assessed as surface antigen production; type: functional, organism-based, Hep 3B2

Row | IC50 | Compound
1 | 0.4 µg/mL (≈ 0.71 µM) | C=CC[C@H]1OC(=O)CCNC(=O)[C@H](C)N(C)C(=O)[C@H](C(C)C)N(C)C(=O)[C@H](C(C)C)NC(=O)[C@@H]2CCCN2C1=O [DESTRUXIN A2] (cyclo([NMeA][βAla][dLac(3-vinyl)]PV[NMeV]))
2 | 1.2 µg/mL (≈ 2.13 µM) | C=CC[C@H]1OC(=O)CCNC(=O)[C@H](C)N(C)C(=O)[C@H](C(C)C)NC(=O)[C@H]([C@@H](C)CC)NC(=O)[C@@H]2CCCN2C1=O [DESMETHYLDESTRUXIN A]
3 | 0.1 µg/mL (≈ 0.173 µM) | C=CC[C@H]1OC(=O)CCNC(=O)[C@H](C)N(C)C(=O)[C@H](C(C)C)N(C)C(=O)[C@H]([C@@H](C)CC)NC(=O)[C@@H]2CCCN2C1=O (cyclo(I[NMeV][NMeA][βAla][dLac(3-vinyl)]P))
4 | 1.5 µg/mL (≈ 2.65 µM) | CC(C)C[C@H]1OC(=O)CCNC(=O)[C@H](C)N(C)C(=O)[C@H](C(C)C)NC(=O)[C@H](C(C)C)NC(=O)[C@@H]2CCCN2C1=O [DESMETHYLDESTRUXIN B2] (cyclo([NMeA][βAla][dHica]PVV))
5 | 0.6 µg/mL (≈ 1.03 µM) | CC[C@H](C)[C@@H]1NC(=O)[C@@H]2CCCN2C(=O)[C@@H](CC(C)C)OC(=O)CCNC(=O)[C@H](C)N(C)C(=O)[C@H](C(C)C)NC1=O [DESMETHYLDESTRUXIN B] (cyclo(IV[NMeA][βAla][dHica]P))

Row | Compound | IC50
6 | CC[C@H](C)[C@@H]1NC(=O)[C@@H]2CCCN2C(=O)[C@@H](CC(C)C)OC(=O)CCNC(=O)[C@H](C)N(C)C(=O)[C@H](C(C)C)N(C)C1=O (cyclo(I[NMeV][NMeA][βAla][dHica]P)) | 0.2 µg/mL (≈ 0.337 µM)
7 | CC(C)C[C@H]1OC(=O)CCNC(=O)[C@H](C)N(C)C(=O)[C@H](C(C)C)N(C)C(=O)[C@H](C(C)C)NC(=O)[C@@H]2CCCN2C1=O [DESTRUXIN B2] (cyclo([NMeA][βAla][dHica]PV[NMeV])) | 0.3 µg/mL (≈ 0.517 µM)
